One test deals with Erysiphe graminis. The test can be described thus: Test for preventive effect on wheat powdery mildew. The class given is in vivo. As to conditions: wheat seedlings (Norin-61-go), two-leaf stage, 500 ppm active ingredient, wettable powder, total diseased area of first leaves 10 days after inoculation. On the procedure: 10 Wheat seeds (variety: Norin-61-go) were sown in each plastic pot having a diameter of 6 cm, and grown in a greenhouse. Wheat seedlings which reached a two-leaf stage were treated with 10 ml per pot of aqueous solutions of wettable powders prepared in accordance with Formulation Example 2, at a concentration of 500 ppm in terms of the active ingredients, and dried in the air. Then, the seedlings were inoculated with Erysiphe graminis spore and controlled in a greenhouse. 10 Days after the inoculation, the total diseased area of the first leaves in each pot was observed and evaluated on the basis of the standards shown in Table 21.

For a further test, the system named is Septoria nodorum. The test can be described thus: Test for preventive effect on Septoria leaf blotch of wheat. The class given is in vivo. The settings on record: wheat seedlings (Norin-61-go), two-leaf stage, 50 ppm active ingredient, 10 ml per pot, evaluated 10 days after inoculation with Septoria nodorum. An excerpt:
[table] 10 Wheat seeds (variety: Norin-61-go) were sown in each plastic pot having a diameter of 6 cm, and grown in a greenhouse. […] Then, the seedlings were inoculated with Septoria nodorum […] controlled in a greenhouse. 10 Days after the inoculation, the total diseased area of the first leaves in each pot was observed and evaluated on the basis of the standards shown in Table 21.

On to `COC(=O)NCc1cc(C(C)=NOCc2ccccc2Cl)ccc1Cl` (single isomer, unassigned) [A-84], for which the Evaluation entry in the test on Erysiphe graminis is on record as “A (No diseased area)”.

On to `COC(=O)NCc1cc(C(C)=NOCc2ccc(Cl)cc2)ccc1Cl` (single isomer, unassigned) [A-86], for which, in the test on Erysiphe graminis, the Evaluation result is “A (No diseased area)”.

Regarding `C=CCON=C(C)c1cccc(CNC(=O)OC)c1` [A-37], the Evaluation result in the test with Erysiphe graminis is given as “A (No diseased area)”.

As for `COC(=O)NCc1cccc(C(C)=NOCc2ccccc2)c1` [A-38], the Evaluation result in the test on Erysiphe graminis is reported as “A (No diseased area)”.

In the case of `CCON=C(C)c1cccc(CNC(=O)OC)c1` [A-39], in the test on Erysiphe graminis, the Evaluation result is recorded as “A (No diseased area)”.

On to `CON=C(C)c1cccc(CNC(=O)OC)c1` [A-40, Methyl N-[3-(1-methoxyiminoethyl)benzyl]carbamate], for which the Evaluation result in the test on Erysiphe graminis was “A (No diseased area)”.

As for `C=CCON=C(c1ccccc1)c1cccc(CNC(=O)OC)c1` [A-41], the Evaluation result in the test on Erysiphe graminis is listed as “B (Diseased area of less than 5%)”.

In the case of `CON=C(c1ccccc1)c1cccc(CNC(=O)OC)c1` [A-42], the Evaluation result in the test on Erysiphe graminis is on record as “A (No diseased area)”.

On to `CCON=C(c1ccccc1)c1cccc(CNC(=O)OC)c1` [A-43], for which the Evaluation result with Erysiphe graminis is recorded as “A (No diseased area)”.

Turning to `CON=C(C)c1ccc(Cl)c(CNC(=O)OC)c1` [A-46], the Evaluation entry with Erysiphe graminis is “A (No diseased area)”.

As for `CCON=C(C)c1ccc(Cl)c(CNC(=O)OC)c1` [A-49], the Evaluation entry in the test on Erysiphe graminis was “A (No diseased area)”.

For the compound `CCCON=C(C)c1ccc(Cl)c(CNC(=O)OC)c1` [A-50], in the test on Erysiphe graminis, the Evaluation result is “A (No diseased area)”.

Consider `COC(=O)NCc1cc(C(C)=NOC(C)(C)C)ccc1Cl` [A-55], for which the Evaluation result in the test with Erysiphe graminis is reported as “A (No diseased area)”.

`COC(=O)NCc1cc(C(C)=NOC(C)c2ccccc2Cl)ccc1F` (centres unmarked) [A-378]: the “Evaluation (total diseased area of the first leaves)” value in the test with Septoria nodorum is on record as “A (No diseased area)”.

As to `COC(=O)NCc1cc(C(C)=NOC(C)c2cccc(Cl)c2)ccc1F` (centres unmarked) [A-379], the “Evaluation (total diseased area of the first leaves)” value in the test with Septoria nodorum is “A (No diseased area)”.

For `COC(=O)NCc1cc(C(C)=NOC(C)c2ccc(Cl)cc2)ccc1F` (centres unmarked) [A-380], in the test on Septoria nodorum, the “Evaluation (total diseased area of the first leaves)” value is “A (No diseased area)”.

Consider `COC(=O)NCc1c(C)c(C)c(C)c(C(C)=NOCc2ccccc2)c1C` [A-381], for which, in the test on Septoria nodorum, the “Evaluation (total diseased area of the first leaves)” value is “A (No diseased area)”.

Regarding `COC(=O)NCc1c(Cl)c(Cl)c(Cl)c(C(C)=NOCc2ccccc2)c1Cl` [A-382], the “Evaluation (total diseased area of the first leaves)” value in the test with Septoria nodorum is on record as “B (Diseased area of less than 5%)”.

As to `COC(=O)NCc1cccc(C(C)=NOc2cccc(Cl)c2C#N)c1` [A-385], in the test with Septoria nodorum, the “Evaluation (total diseased area of the first leaves)” value is reported as “B (Diseased area of less than 5%)”.

As for `COC(=O)NCc1cccc(C(C)=NOCc2cccc(Cl)c2Cl)c1` [A-386], the “Evaluation (total diseased area of the first leaves)” value in the test on Septoria nodorum is “B (Diseased area of less than 5%)”.

As for `COC(=O)NCc1cccc(C(C)=NOCc2ccc(Cl)cc2Cl)c1` [A-387], the “Evaluation (total diseased area of the first leaves)” value in the test on Septoria nodorum is on record as “B (Diseased area of less than 5%)”.

Take `COC(=O)NCc1cccc(C(C)=NOCc2cc(Cl)ccc2Cl)c1` [A-388]: the “Evaluation (total diseased area of the first leaves)” value in the test on Septoria nodorum was “A (No diseased area)”.

With `COC(=O)NCc1cccc(C(C)=NOCc2c(Cl)cccc2Cl)c1` [A-389], the “Evaluation (total diseased area of the first leaves)” value with Septoria nodorum is “A (No diseased area)”.

Turning to `COC(=O)NCc1cc(C(C)=NOCc2cccc(C#N)n2)ccc1Cl` [A-396], the “Evaluation (total diseased area of the first leaves)” value in the test on Septoria nodorum is recorded as “A (No diseased area)”.

As to `COC(=O)NCc1cc(C(C)=NOCc2cccnc2C#N)ccc1Cl` [A-397], the “Evaluation (total diseased area of the first leaves)” value in the test on Septoria nodorum was “A (No diseased area)”.

As for `COC(=O)NCc1cccc(C(C)=NOCc2ccccc2F)c1` [A-398], in the test on Septoria nodorum, the “Evaluation (total diseased area of the first leaves)” value is given as “A (No diseased area)”.

As for `COC(=O)NCc1cccc(C(C)=NOCc2ccc(F)cc2)c1` [A-400], the “Evaluation (total diseased area of the first leaves)” value with Septoria nodorum is listed as “B (Diseased area of less than 5%)”.

Consider `COC(=O)NCc1cc(C(C)=NOCC(=O)c2ccc(Cl)cc2)ccc1Cl` [A-403], for which, in the test on Septoria nodorum, the “Evaluation (total diseased area of the first leaves)” value is “A (No diseased area)”.

As for `COC(=O)NCc1cc(C(C)=NOCC(=O)c2ccc(OC)cc2)ccc1Cl` [A-404], the “Evaluation (total diseased area of the first leaves)” value with Septoria nodorum is on record as “A (No diseased area)”.

In the case of `COC(=O)NCc1cc(C(=NOCc2ccccn2)C2CC2)ccc1Cl` [A-405], the “Evaluation (total diseased area of the first leaves)” value in the test on Septoria nodorum is “A (No diseased area)”.

On to `COC(=O)NCc1cc(C(C)=NOC(C)c2ccccc2C)ccc1Cl` (centres unmarked) [A-406], for which the “Evaluation (total diseased area of the first leaves)” value with Septoria nodorum is given as “A (No diseased area)”.

`COC(=O)NCc1cc(C(C)=NOC(C)c2cccc(C)c2)ccc1Cl` (centres unmarked) [A-407]: in the test with Septoria nodorum, the “Evaluation (total diseased area of the first leaves)” value is recorded as “A (No diseased area)”.

For the compound `COC(=O)NCc1cc(C(C)=NOCc2ccc(C(C)=O)o2)ccc1Cl` [A-410], the “Evaluation (total diseased area of the first leaves)” value in the test on Septoria nodorum is on record as “A (No diseased area)”.

With `COC(=O)NCc1cc(C(C)=NOC2C=CCC2OC)ccc1Cl` (centres unmarked) [A-411], the “Evaluation (total diseased area of the first leaves)” value in the test on Septoria nodorum is recorded as “A (No diseased area)”.

In the case of `CON=C(C)C(ON=C(C)c1ccc(Cl)c(CNC(=O)OC)c1)C(C)=NOC` (centres unmarked) [A-412], the “Evaluation (total diseased area of the first leaves)” value in the test on Septoria nodorum is “A (No diseased area)”.

For the compound `COC(=O)NCc1cc(C(C)=NOCc2nc(C)cc(C)n2)ccc1Cl` [A-413], in the test on Septoria nodorum, the “Evaluation (total diseased area of the first leaves)” value is “A (No diseased area)”.

Regarding `COC(=O)NCc1cc(C(C)=NOCc2ccccc2[N+](=O)[O-])ccc1Cl` [A-414], the “Evaluation (total diseased area of the first leaves)” value in the test on Septoria nodorum was “A (No diseased area)”.

For `COC(=O)NCc1cc(C(C)=NOCc2cccs2)ccc1Cl` [A-415], the “Evaluation (total diseased area of the first leaves)” value in the test with Septoria nodorum is “A (No diseased area)”.

`COC(=O)NCc1cc(C(C)=NOCc2cscn2)ccc1Cl` [A-416]: in the test on Septoria nodorum, the “Evaluation (total diseased area of the first leaves)” value is listed as “A (No diseased area)”.

`COC(=O)NCc1cc(C(C)=NOCc2cccc(OC)n2)ccc1Cl` [A-417]: in the test on Septoria nodorum, the “Evaluation (total diseased area of the first leaves)” value was “A (No diseased area)”.

As for `CCOc1cccc(CON=C(C)c2ccc(Cl)c(CNC(=O)OC)c2)n1` [A-418], the “Evaluation (total diseased area of the first leaves)” value in the test with Septoria nodorum was “A (No diseased area)”.

Turning to `COC(=O)NCc1cc(C(C)=NOCc2cccc(C#N)c2)ccc1F` [A-428], the “Evaluation (total diseased area of the first leaves)” value in the test with Septoria nodorum is “A (No diseased area)”.

For `COC(=O)NCc1cc(C(C)=NOCc2cccc(C)n2)ccc1F` [A-430], in the test with Septoria nodorum, the “Evaluation (total diseased area of the first leaves)” value was “A (No diseased area)”.

For `COC(=O)NCc1cc(C(C)=NOCc2ccc3ccccc3n2)ccc1Cl` [A-431], the “Evaluation (total diseased area of the first leaves)” value in the test with Septoria nodorum is listed as “A (No diseased area)”.

On to `COC(=O)NCc1cc(C(C)=NOCc2nc(C(F)(F)F)cs2)ccc1Cl` [A-432], for which the “Evaluation (total diseased area of the first leaves)” value in the test on Septoria nodorum was “A (No diseased area)”.

As to `COC(=O)NCc1cc(C(C)=NOCc2cccc(C)[n+]2[O-])ccc1Cl` [A-433], the “Evaluation (total diseased area of the first leaves)” value with Septoria nodorum was “B (Diseased area of less than 5%)”.

Turning to `COC(=O)NCc1cc(C=NOCc2ccc(Cl)cc2)ccc1Cl` [A-438], in the test on Septoria nodorum, the “Evaluation (total diseased area of the first leaves)” value is “B (Diseased area of less than 5%)”.

On to `COC(=O)NCc1cc(C(C)=NOCc2ccc3ccccc3n2)ccc1F` [A-440], for which the “Evaluation (total diseased area of the first leaves)” value with Septoria nodorum is “B (Diseased area of less than 5%)”.

Turning to `COC(=O)NCc1cc(C(C)=NOCC2CCCO2)ccc1Cl` (centres unmarked) [A-443], the “Evaluation (total diseased area of the first leaves)” value in the test with Septoria nodorum was “B (Diseased area of less than 5%)”.

As to `COC(=O)NCc1cc(C(C)=NOC2C=CC(C(Cl)(Cl)Cl)C2)ccc1Cl` (centres unmarked) [A-444], the “Evaluation (total diseased area of the first leaves)” value in the test with Septoria nodorum is “B (Diseased area of less than 5%)”.

The record behind these values is patent US6812229B1, “Carbamate derivative and agricultural/horticultural fungicide” (Kumiai Chemical Industry Co., Ltd., priority 1999, dated 2004).
